From patent publication US5786486A, “Acrylamide derivatives and process for production thereof” (Kyorin Pharmaceutical Co., Ltd., priority 1994, dated 1998)
Values after ≈ are worked out from the molar mass of the structure shown.

Key:
HeLa S3 cells = experiment: HeLa Cell Growth Inhibition Activity (HeLa S3, MTT); type: cell-based; conditions: Homo sapiens, 72 hours exposure
Protocol: HeLa Cell Growth Inhibition Activity:
HeLa S3 cells were maintained as a monolayer culture in Eagle's minimal medium (Nissui Seiyaku K. K., Tokyo) containing […] glutamine, 100 μg/mL of kanamycin sulfate, and 10% inactivated fetal calt serum at 37° C. in a carbon dioxide incubator. The cells 1.8×10^3 were inoculated to a 96-well plate, and were exposed to the test compounds from the next day for 72 hours. Then, the viable cell numbers were measured by evaluating the ability to reduce 3-[4,5-dimethylthiazol-2-yl]-2,5-diphenyltetrazolium bromide (MTT) according to the Mosmann's method (Mosmann,T., J. Imunol. Meth., 65, 55-63, 1983).

Colon 26 cells = experiment: Antitumor effect in Colon 26-bearing mice; type: in vivo, CDF1 female mice; conditions: for Antitumor activity Colon-26 TGI % (tumor growth inhibition rate): Colon 26-bearing CDF1 mice, single dose via tail vein, tumor weighed one week after; for Chemotherapy index MTD/TGI50: ratio of maximum tolerant dose (mg/kg) to dose giving 50% tumor growth inhibition (mg/kg), colon26-bearing mice
Protocol: Antitumor effect in Colon 26-bearing mice:
Colon 26 cells 1×10^6 were transplanted into an axillary region of 8-week old CDF1 female mice (Japan SLC Inc., Hamamatsu) subcutaneously. Six days after the transplantation, when the tumor grew palpable, the compound was administered via the tail vein. One week after the administration, the tumor was removed and weighed. The antitumor activity was represented by tumor growth inhibition rate (TGI %=(1--T/C)×100) derived from the ratio (T/C) of the average tumor weight (T) of the compound-administered group to the average tumor weight (C) of the control group.

Compound | IC50 (HeLa S3 cells) [ng/mL] | Chemotherapy index MTD/TGI50 (Colon 26 cells) | further results
COC(=O)c1c(C(F)(F)F)[nH]c2c(O)cc3c(c12)[C@H](CCl)CN3C(=O)/C=C/c1ccc(/C=C/C(=O)N2C[C@@H](CCl)c3c2cc(O)c2[nH]c(C(F)(F)F)c(C(=O)OC)c32)c2ccccc12 [Example 10, (S,S)-3,3'-[3,3'-(1,4-naphthalenediyl)diacryloyl]-bis[1-chloromethyl-5-hydroxy-7-trifluoromethyl-1,2,3,6-tetrahydropyrrolo[3,2-e]indole-8-methoxycarbonyl]] | 0.011 (≈ 0.0118 nM) | 7.4 | Antitumor activity Colon-26 TGI % (tumor growth inhibition rate) (Colon 26 cells; 0.977 μg/kg): 85%
O=C(/C=C/c1ccc(/C=C/C(=O)N2C[C@@H](CCl)c3c2cc(O)c2[nH]c4ccccc4c32)cc1)N1C[C@@H](CCl)c2c1cc(O)c1[nH]c3ccccc3c21 [Example 20, (S,S)-3,3'-[3,3'-(1,4-phenylene)diacryloyl]-bis[1-chloromethyl-5-hydroxy-1,2-dihydropyrrolo[3,2-a]carbazole]] | 0.0716 (≈ 0.0984 nM) |  | 
COC(=O)c1c(C(F)(F)F)[nH]c2c(O)cc3c(c12)[C@H](CCl)CN3C(=O)/C=C/c1ccc(/C=C/C(=O)N2C[C@@H](CCl)c3c2cc(O)c2[nH]c(C(F)(F)F)c(C(=O)OC)c32)c2c1OCCO2 [Example 4, (S,S)-3,3'-[3,3'-(2,3-(ethylenedioxy)-1,4-phenylene)diacryloyl]-bis[1-chloromethyl-5-hydroxy-7-trifluoromethyl-1,2,3,6-tetrahydropyrrolo [3,2-e]indole-8-methoxycarbonyl]] | 0.00276 (≈ 0.00294 nM) | 9 | Antitumor activity Colon-26 TGI % (tumor growth inhibition rate) (Colon 26 cells; 0.488 μg/kg): 91%
COC(=O)c1c(C(F)(F)F)[nH]c2c(O)cc3c(c12)[C@H](CCl)CN3C(=O)/C=C/c1ccc(/C=C/C(=O)N2C[C@@H](CCl)c3c2cc(O)c2[nH]c(C(F)(F)F)c(C(=O)OC)c32)c(OC)c1OC [Example 8, (S,S)-3,3'-[3,3 '-(2,3-dimethoxy-1,4-phenylene)diacryloyl]-bis[1-chloromethy 1-5-hydroxy-7-trifluoromethyl-1,2,3,6-tetrahydropyrrolo[3,2-e]indole-8-methoxycarbonyl]] | 0.00158 (≈ 0.00168 nM) | 4.6 | Antitumor activity Colon-26 TGI % (tumor growth inhibition rate) (Colon 26 cells; 0.977 μg/kg): 89%
COC(=O)c1c(C(F)(F)F)[nH]c2c(O)cc3c(c12)[C@H](CCl)CN3C(=O)/C=C/c1ccc(-c2ccc(/C=C/C(=O)N3C[C@@H](CCl)c4c3cc(O)c3[nH]c(C(F)(F)F)c(C(=O)OC)c43)cn2)nc1 [Example 13, (S,S)-3,3'-[3,3'-(2,2'-bipyridyl-5,5'-diyl)diacryloyl]-bis[1-chloromethyl-5-hydroxy-7-trifluoromethyl-1,2,3,6-tetrahydropyrrolo [3,2-e]indole-8-methoxycarbonyl]] | 0.0198 (≈ 0.0207 nM) | 3.6 | Antitumor activity Colon-26 TGI % (tumor growth inhibition rate) (Colon 26 cells; 3.91 μg/kg): 88%
CCc1c(/C=C/C(=O)N2C[C@@H](CCl)c3c2cc(O)c2[nH]c(C(F)(F)F)c(C(=O)OC)c32)ccc(/C=C/C(=O)N2C[C@@H](CCl)c3c2cc(O)c2[nH]c(C(F)(F)F)c(C(=O)OC)c32)c1CC [Example 6, (S,S)-3,3'-[3,3'-(2,3-diethyl-1,4-phenylene)diacryloyl]-bis[1-chloromethyl-5-hydroxy-7-trifluoromethyl-1,2,3,6-tetrahydropyrrolo[3,2-e]indole-8-methoxycarbonyl]] | 0.0318 (≈ 0.034 nM) |  | 
COC(=O)c1cc2c3c(cc(O)c2[nH]1)N(C(=O)/C=C/c1ccc(/C=C/C(=O)N2C[C@@H](CCl)c4c2cc(O)c2[nH]c(C(=O)OC)cc42)cc1)C[C@H]3CCl [Example 22, (S,S)-3,3'-[3,3 '-(1,4-phenylene)diacryloy]-bis[1-chloromethyl-5-hydroxy-1,2,3,6-tetrahydropyrrolo[3,2-e]indole-7-methoxycarbonyl]] | 0.0227 (≈ 0.0305 nM) |  | 
Cc1c[nH]c2c(O)cc3c(c12)[C@H](CCl)CN3C(=O)/C=C/c1ccc(/C=C/C(=O)N2C[C@@H](CCl)c3c2cc(O)c2[nH]cc(C)c32)cc1 [Example 19, (S,S)-3,3'-[3,3'-(1,4-phenylene)diacryloy]-bis[1-chloromethyl-5-hydroxy-8-methyl-1,2,3,6-tetrahydropyrrolo[3,2-e]indole]] | 0.0134 (≈ 0.0204 nM) |  | 
COC(=O)c1c(C(F)(F)F)[nH]c2c(O)cc3c(c12)[C@H](CCl)CN3C(=O)/C=C/c1ccc(/C=C/C(=O)N2C[C@@H](CCl)c3c2cc(O)c2[nH]c(C(F)(F)F)c(C(=O)OC)c32)c2c1OCO2 [Example 5, (S,S)-3,3'-[3,3'-(2,3-(methylenedioxy)-1,4-phenylene)diacryloyl]-bis[1-chloromethyl-5-hydroxy-7-trifluoromethyl-1,2,3,6-tetrahydropyrrolo[3,2-e]indole-8-methoxycarbonyl]] | 0.00595 (≈ 0.00644 nM) |  | Antitumor activity Colon-26 TGI % (tumor growth inhibition rate) (Colon 26 cells; 1.95 μg/kg): 90%
COC(=O)c1c(C(F)(F)F)[nH]c2c(O)cc3c(c12)[C@H](CCl)CN3C(=O)/C=C/c1ccc(/C=C/C(=O)N2C[C@@H](CCl)c3c2cc(O)c2[nH]c(C(F)(F)F)c(C(=O)OC)c32)c2c(OC)ccc(OC)c12 [Example 3, (S,S)-3,3'-[3,3'-(5,8-dimethoxy-1,4-naphthalenediyl)diacryloyl]-bis[1-chloromethyl-5-hydroxy-7-trifluoromethyl-1,2,3,6-tetrahydropyrrolo [3,2-e]indole-8-methoxycarbonyl]] | 0.00934 (≈ 0.00944 nM) |  | 
COC(=O)c1c[nH]c2c(O)cc3c(c12)[C@H](CCl)CN3C(=O)/C=C/c1ccc(/C=C/C(=O)N2C[C@@H](CCl)c3c2cc(O)c2[nH]cc(C(=O)OC)c32)cc1 [Example 21, (S,S)-3,3'-[3,3'-(1,4-phenylene)diacryloy]-bis[1-chloromethyl-5-hydroxy-1,2,3,6-tetrahydropyrrolo[3,2-e]indole-8-methoxycarbonyl]] | 0.00035 (≈ 0.000471 nM) |  | 
COC(=O)c1c(C)[nH]c2c(O)cc3c(c12)[C@H](CCl)CN3C(=O)/C=C/c1ccc(/C=C/C(=O)N2C[C@@H](CCl)c3c2cc(O)c2[nH]c(C)c(C(=O)OC)c32)cc1 [Example 18, (S,S)-3,3'-[3,3'-(1,4-phenylene)diacryloyl]-bis[1-chloromethyl-5-hydroxy-7-methyl-1,2,3,6-tetrahydropyrrolo [3,2-e]indole-8-methoxycarbonyl]] | 0.000459 (≈ 0.000595 nM) |  | 
COC(=O)c1c(C(F)(F)F)[nH]c2c(O)cc3c(c12)[C@H](CCl)CN3C(=O)/C=C/c1ccc(/C=C/C(=O)N2C[C@@H](CCl)c3c2cc(O)c2[nH]c(C(F)(F)F)c(C(=O)OC)c32)cc1 [Example 1, (S,S)-3,3'-[3,3'-(1,4-phenylenediacryloyl)]-bis[1-chloromethyl-5-hydroxy-7-trifluoromethyl-1,2,3,6-tetrahydropyrrolo[3,2-e]indole-8-methoxycarbonyl]] | 0.0031 (≈ 0.00352 nM) | 21.9 | Antitumor activity Colon-26 TGI % (tumor growth inhibition rate) (Colon 26 cells; 7.81 μg/kg): 92%
